From the supplement of paper PMC13380429

Experiments:
Conditions in all cases: 72 h
[1] = tested on: Caco-2; assay: cell viability relative to DMSO; higher = less toxic
[2] = tested on: Calu-3; assay: as above
[3] = tested on: HepG2; assay: as above
[4] = tested on: U2OS; assay: as above
[5] = tested on: Vero E6; assay: as above
[6] = tested on: Calu-3; assay: relative viability EC50 (midpoint between 100% and the lowest measured viability); higher = less toxic
[7] = tested on: U2OS; assay: as above
[8] = tested on: Vero E6; assay: as above
[9] = tested on: Caco-2; assay: drug sensitivity score (DSS) for viability; higher = more toxic; extreme values may be limits of the assay
[10] = tested on: Calu-3; assay: as above
[11] = tested on: HepG2; assay: as above
[12] = tested on: U2OS; assay: as above
[13] = tested on: Vero E6; assay: as above
[14] = tested on: Caco-2; assay: relative viability EC50 (midpoint between 100% and the lowest measured viability); higher = less toxic

SMILES | cell viability ([1]; 1 nM) [%] | cell viability ([1]; 10 nM) [%] | cell viability ([1]; 100 nM) [%] | cell viability ([1]; 1000 nM) [%] | cell viability ([1]; 10000 nM) [%] | cell viability ([2]; 1 nM) [%] | cell viability ([2]; 10 nM) [%] | cell viability ([2]; 100 nM) [%] | cell viability ([2]; 1000 nM) [%] | cell viability ([2]; 10000 nM) [%] | cell viability ([3]; 1 nM) [%] | cell viability ([3]; 10 nM) [%] | cell viability ([3]; 100 nM) [%] | cell viability ([3]; 1000 nM) [%] | cell viability ([3]; 10000 nM) [%] | cell viability ([4]; 1 nM) [%] | cell viability ([4]; 10 nM) [%] | cell viability ([4]; 100 nM) [%] | cell viability ([4]; 1000 nM) [%] | cell viability ([4]; 10000 nM) [%] | cell viability ([5]; 1 nM) [%] | cell viability ([5]; 10 nM) [%] | cell viability ([5]; 100 nM) [%] | cell viability ([5]; 1000 nM) [%] | cell viability ([5]; 10000 nM) [%] | relative viability EC50 [6] [µM] | relative viability EC50 [7] [µM] | relative viability EC50 [8] [µM] | drug sensitivity score [9] | drug sensitivity score [10] | drug sensitivity score [11] | drug sensitivity score [12] | drug sensitivity score [13] | relative viability EC50 [14] [µM]
C=CC(=O)N1CCC(Oc2cc3c(Nc4ccc(Cl)c(Cl)c4F)ncnc3cc2OC)CC1 [poziotinib] | 88.4 | 86.5 | 80.9 | 85.2 | 60.1 | 67.5 | 31.5 | 30 | 27.4 | 18.5 | 105 | 97.3 | 101 | 93.9 | 63.3 | 95.1 | 94.4 | 91.1 | 88 | 19.3 | 86.4 | 60.5 | 58.3 | 45.6 | 8.8 | 0.0016 | 2 | 0.0784 | 6.4 | 34.8 | 2.8 | 6.5 | 21.1 | –
CC1=C(/C=C/C(C)=C/C=C/C(C)=C/CO)C(C)(C)CCC1 [retinol] | 108 | 89.4 | 96.7 | 97.8 | 93.2 | 90.6 | 103 | 101 | 91.7 | 99.5 | – | – | – | – | – | 102 | 96.9 | 102 | 96.8 | 103 | – | – | – | – | – | > 10 | > 10 | – | 0 | 0 | – | 0 | – | > 10
Cn1c([N+](=O)[O-])cnc1COC(N)=O [ronidazole] | 89.2 | 93.5 | 107 | 95.2 | 101 | 95.6 | 98.6 | 95.3 | 92 | 103 | – | – | – | – | – | 96.4 | 97.9 | 99.8 | 97.9 | 99.5 | 98 | 103 | 93.7 | 98.7 | 108 | > 10 | > 10 | > 10 | 0 | 0 | – | 0 | 0 | > 10
CN(C(=O)c1c(O)c2ccccc2n(C)c1=O)c1ccccc1 [roquinimex] | 88.7 | 95.5 | 82.2 | 92.5 | 99.5 | 85.8 | 96.1 | 96 | 95.4 | 108 | – | – | – | – | – | 96.5 | 101 | 94.1 | 93.8 | 101 | 103 | 93.6 | 98.2 | 97.1 | 105 | > 10 | > 10 | > 10 | 0 | 0 | – | 0 | 0 | > 10
Nc1ccc(S(=O)(=O)Nc2ncccn2)cc1 [sulfadiazine] | – | – | – | – | – | – | – | – | – | – | – | – | – | – | – | – | – | – | – | – | – | – | – | – | – | – | – | – | – | 0.1 | – | – | – | –
NS(=O)(=O)c1cc2c(cc1Cl)NC(C(Cl)Cl)NS2(=O)=O (stereo not given) [trichlormethiazide] | – | – | – | – | – | – | – | – | – | – | – | – | – | – | – | – | – | – | – | – | – | – | – | – | – | – | – | – | – | 0 | 1.4 | 0 | 0 | –
